# Counter-ions that a name gives are not always drawn.
# How the values were obtained:
# [1] = tested on: human platelet rich plasma (PRP); assay: ADP induced platelet aggregation assay; details: Homo sapiens, Platelet, read-out: PA IC50 (μM) @ 10 μM ADP, platelet aggregation induced by 10 μM ADP, human PRP
# Method: The ability of P2Y1 antagonists covered in the present invention to inhibit platelet aggregation induced by 10 μM ADP was tested using human platelet rich plasma (PRP) as described in Platelet Protocols: Research and Clinical Laboratory Procedures (White, M. M. et al., Academic Press (1999)). Human blood was collected in 30 μM (final concentration in blood) argatroban (GSK) as the anticoagulant at a ratio of 1 ml per 9 ml of blood. The PRP was isolated by centrifugation at 170 g for 12 minutes. The platelet poor plasma (PPP) was used as the blank for optical aggregometry. Compounds of the present invention in DMSO solution was preincubated with 250 μl PRP at 37° C. for 1 minute with stirring speed of 1000 rpm. Aggregation was initiated by addition of 2.5 μl of 1 mM ADP (Chrono-log, Havertown, Pa.) for a final ADP concentration of 10 μM. Platelet aggregation was monitored using Optical Aggregometer (Chrono-log, Havertown, Pa.) and the area under the curve (AUC) at 5 minute was measured. IC50 was calculated using vehicle control as 0% inhibition.
# [2] = target: cloned human P2Y1 receptors (Homo sapiens (Human), UniProt P47900); assay: Binding Assay B: Scintillation Proximity Assay (SPA) for P2Y1 binding; details: SPA, [33P] 2MeS-ADP displacement; read-out: P2Y1 Ki (nM) using binding assay B
# Sequence of cloned human P2Y1 receptors (P47900 whole entry): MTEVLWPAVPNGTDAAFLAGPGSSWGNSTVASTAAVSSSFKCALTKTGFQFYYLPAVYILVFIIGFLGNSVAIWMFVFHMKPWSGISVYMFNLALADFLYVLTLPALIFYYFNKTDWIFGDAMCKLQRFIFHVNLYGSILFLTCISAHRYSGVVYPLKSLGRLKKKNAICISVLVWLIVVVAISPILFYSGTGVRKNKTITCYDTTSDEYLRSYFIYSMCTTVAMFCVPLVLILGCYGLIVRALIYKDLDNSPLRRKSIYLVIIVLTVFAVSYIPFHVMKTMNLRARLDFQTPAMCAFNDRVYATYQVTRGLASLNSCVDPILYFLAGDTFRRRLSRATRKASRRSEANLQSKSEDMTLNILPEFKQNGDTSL
# Method: A SPA membrane binding assay was used to identify inhibitors of [^33P] […] Binding reactions were performed in 384-well OptiPlates (PerkinElmer Life Sciences, Cat #6007299) in a volume of 50 μL containing ˜15 fmol of P2Y1 receptor (1.7 μg of total protein), 0.3 nM [^33P] […] Reactions were allowed to proceed to completion at room temperature for 1 hour followed by centrifugation of the plate for 5 min. About 40 μL of the aqueous solution was aspirated. Plates were sealed and the [^33P]
SMILES,IC50 [1],Ki [2]
"CC(C)(C)CN1CCC2(CC1)CN(c1ccccc1NC(=O)Nc1csc(Cl)c1)c1c(O)ccc(C(F)(F)F)c12 [Example 26, 1-(5-Chlorothiophen-3-yl)-3-(2-(7-hydroxy-1′-neopentyl-4-(trifluoromethyl)spiro[indoline-3,4′-piperidine]-1-yl)phenyl)urea]",0.2 µM,7.3 nM
"CC(C)(C)CN1CCC2(CC1)CN(c1ccccc1NC(=O)NC1CCC(C(C)(C)C)CC1)c1c(O)ccc(C(F)(F)F)c12 (stereo not shown) [Example 27, 1-(4-tert-Butylcyclohexyl)-3-(2-(7-hydroxy-1′-neopentyl-4-(trifluoromethyl)spiro[indoline-3,4′-piperidine]-1-yl)phenyl)urea]",0.7 µM,9.6 nM
"CC(C)c1nc(NC(=O)Nc2ccccc2N2CC3(CCN(CC(C)(C)C)CC3)c3c(C(F)(F)F)ccc(O)c32)cs1 [Example 28, 1-(2-(7-Hydroxy-1′-neopentyl-4-(trifluoromethyl)spiro[indoline-3,4′-piperidine]-1-yl)phenyl)-3-(2-isopropylthiazol-4-yl)urea]",0.8 µM,6.6 nM
"CC(C)(C)CN1CCC2(CC1)CN(c1ccccc1NC(=O)Nc1nccs1)c1c(O)ccc(C(F)(F)F)c12 [Example 29, 1-(2-(7-Hydroxy-1′-neopentyl-4-(trifluoromethyl)spiro[indoline-3,4′-piperidine]-1-yl)phenyl)-3-(thiazol-2-yl)urea]",0.4 µM,6.4 nM
"CC(C)CN1CCC2(CC1)CN(c1ccccc1NC(=O)Nc1nc3ccc(Cl)cc3s1)c1c(O)ccc(C(F)(F)F)c12 [Example 30, 1-(6-Chlorobenzo[d]thiazol-2-yl)-3-(2-(7-hydroxy-1′-isobutyl-4-(trifluoromethyl)spiro[indoline-3,4′-piperidine]-1-yl)phenyl)urea]",0.1 µM,14.5 nM
"CC(C)CN1CCC2(CC1)CN(c1ccccc1NC(=O)Nc1nc3ccc(F)cc3s1)c1c(O)ccc(C(F)(F)F)c12 [Example 31, 1-(6-Fluorobenzo[d]thiazol-2-yl)-3-(2-(7-hydroxy-1′-isobutyl-4-(trifluoromethyl)spiro[indoline-3,4′-piperidine]-1-yl)phenyl)urea]",0.1 µM,16.4 nM
"CC(C)(C)CN1CCC2(CC1)CN(c1ccccc1NC(=O)Nc1nc3ccc(F)cc3s1)c1c(O)ccc(F)c12 [Example 32, 1-(2-(4-Fluoro-7-hydroxy-1′-neopentylspiro[indoline-3,4′-piperidine]-1-yl)phenyl)-3-(6-fluorobenzo[d]thiazol-2-yl)urea]",0.3 µM,7.4 nM
"COc1ccc2nc(NC(=O)Nc3ccccc3N3CC4(CCN(CC(C)(C)C)CC4)c4c(F)ccc(O)c43)sc2c1 [Example 36, 1-(2-(4-Fluoro-7-hydroxy-1′-neopentylspiro[indoline-3,4′-piperidine]-1-yl)phenyl)-3-(6-methoxybenzo[d]thiazol-2-yl)urea]",0.9 µM,7.9 nM
"CC(C)(C)CN1CCC2(CC1)CN(c1ccccc1NC(=O)Nc1ccc(C(F)(F)F)cc1)c1c(O)ccc(F)c12 [Example 37, 1-(2-(4-Fluoro-7-hydroxy-1′-neopentylspiro[indoline-3,4′-piperidine]-1-yl)phenyl)-3-(4-(trifluoromethyl)phenyl)urea]",1 µM,7.2 nM
"CC(C)(C)CN1CCC2(CC1)CN(c1ccccc1NC(=O)Nc1nc3ccc(Cl)cc3s1)c1c(O)ccc(Cl)c12 [Example 38, 1-(2-(4-Chloro-7-hydroxy-1′-neopentylspiro[indoline-3,4′-piperidine]-1-yl)phenyl)-3-(6-chlorobenzo[d]thiazol-2-yl)urea]",0.4 µM,10 nM
"CC(C)(C)CN1CCC2(CC1)CN(c1ccccc1NC(=O)Nc1nc3ccc(F)cc3s1)c1c(O)ccc(Cl)c12 [Example 39, 1-(2-(4-Chloro-7-hydroxy-1′-neopentylspiro[indoline-3,4′-piperidine]-1-yl)phenyl)-3-(6-fluorobenzo[d]thiazol-2-yl)urea]",0.2 µM,3.8 nM
"Cc1ccc2nc(NC(=O)Nc3ccccc3N3CC4(CCN(CC(C)(C)C)CC4)c4c(Cl)ccc(O)c43)sc2c1 [Example 40, 1-(2-(4-Chloro-7-hydroxy-1′-neopentylspiro[indoline-3,4′-piperidine]-1-yl)phenyl)-3-(6-methylbenzo[d]thiazol-2-yl)urea]",0.5 µM,5.6 nM
"COC(=O)c1ccc2nc(NC(=O)Nc3ccccc3N3CC4(CCN(CC(C)(C)C)CC4)c4c(Cl)ccc(O)c43)sc2c1 [Example 41, Methyl 2-(3-(2-(4-Chloro-7-hydroxy-1′-neopentylspiro[indoline-3,4′-piperidine]-1-yl)phenyl)ureido)benzo [d]thiazole-6-carboxylate]",0.7 µM,7.2 nM
"CCSc1nsc(NC(=O)Nc2ccccc2N2CC3(CCN(CC(C)(C)C)CC3)c3c(Cl)ccc(O)c32)n1 [Example 44, 1-(2-(4-Chloro-7-hydroxy-1′-neopentylspiro[indoline-3,4′-piperidine]-1-yl)phenyl)-3-(3-(ethylthio)-1,2,4-thiadiazol-5-yl)urea]",0.1 µM,7.3 nM
"CC(C)(C)CN1CCC2(CC1)CN(c1ccccc1NC(=O)Nc1nc3c(s1)CCCC3)c1c(O)ccc(Cl)c12 [Example 45, 1-(2-(4-Chloro-7-hydroxy-1′-neopentylspiro[indoline-3,4′-piperidine]-1-yl)phenyl)-3-(4,5,6,7-tetrahydrobenzo[d]thiazol-2-yl)urea, TFA]",0.3 µM,9.5 nM
"CC(C)(C)CN1CCC2(CC1)CN(c1ccccc1NC(=O)Nc1nc3c(s1)CCC3)c1c(O)ccc(Cl)c12 [Example 46, 1-(2-(4-Chloro-7-hydroxy-1′-neopentylspiro[indoline-3,4′-piperidine]-1-yl)phenyl)-3-(5,6-dihydro-4H-cyclopenta[d]thiazol-2-yl)urea, TFA]",0.3 µM,6.2 nM
"COc1ccc2nc(NC(=O)Nc3ccccc3N3CC4(CCN(CC(C)(C)C)CC4)c4c(Cl)ccc(O)c43)sc2c1 [Example 47, 1-(2-(4-Chloro-7-hydroxy-1′-neopentylspiro[indoline-3,4′-piperidine]-1-yl)phenyl)-3-(6-methoxybenzo[d]thiazol-2-yl)urea, TFA]",0.3 µM,9.4 nM
"CC(C)(C)CN1CCC2(CC1)CN(c1ccccc1NC(=O)Nc1nc3c(s1)COCC3)c1c(O)ccc(Cl)c12 [Example 48, 1-(2-(4-Chloro-7-hydroxy-1′-neopentylspiro[indoline-3,4′-piperidine]-1-yl)phenyl)-3-(6,7-dihydro-4H-pyrano[4,3-d]thiazol-2-yl)urea, TFA]",0.4 µM,8 nM
"CC(C)(C)CN1CCC2(CC1)CN(c1ccccc1NC(=O)Nc1nc3c(s1)CSCC3)c1c(O)ccc(Cl)c12 [Example 49, 1-(2-(4-Chloro-7-hydroxy-1′-neopentylspiro[indoline-3,4′-piperidine]-1-yl)phenyl)-3-(6,7-dihydro-4H-thiopyrano[4,3-d]thiazol-2-yl)urea, TFA]",0.3 µM,6.5 nM
"COc1nsc(NC(=O)Nc2ccccc2N2CC3(CCN(CC(C)(C)C)CC3)c3c(Cl)ccc(O)c32)n1 [Example 50, 1-(2-(4-Chloro-7-hydroxy-1′-neopentylspiro[indoline-3,4′-piperidine]-1-yl)phenyl)-3-(3-methoxy-1,2,4-thiadiazol-5-yl)urea, TFA]",0.3 µM,6.8 nM
"CC(C)(C)CN1CCC2(CC1)CN(c1ccccc1NC(=O)Nc1nc3ccc([N+](=O)[O-])cc3s1)c1c(O)ccc(Cl)c12 [Example 51, 1-(2-(4-Chloro-7-hydroxy-1′-neopentylspiro[indoline-3,4′-piperidine]-1-yl)phenyl)-3-(6-nitrobenzo[d]thiazol-2-yl)urea, TFA]",0.5 µM,10.8 nM
"CC(C)(C)CN1CCC2(CC1)CN(c1ccccc1NC(=O)Nc1nc3ccc(OC(F)(F)F)cc3s1)c1c(O)ccc(Cl)c12 [Example 52, 1-(2-(4-Chloro-7-hydroxy-1′-neopentylspiro[indoline-3,4′-piperidine]-1-yl)phenyl)-3-(6-(trifluoromethoxy)benzo[d]thiazol-2-yl)urea, TFA]",0.3 µM,9.2 nM
"CC(C)(C)CN1CCC2(CC1)CN(c1ccccc1NC(=O)Nc1nc3ccccc3s1)c1c(O)ccc(Cl)c12 [Example 53, 1-(Benzo[d]thiazol-2-yl)-3-(2-(4-chloro-7-hydroxy-1′-neopentylspiro[indoline-3,4′-piperidine]-1-yl)phenyl)urea, TFA]",0.5 µM,7.5 nM
"CC(C)(C)CN1CCC2(CC1)CN(c1ccccc1NC(=O)Nc1ccc(F)cc1F)c1c(O)ccc(Cl)c12 [Example 54, 1-(2-(4-Chloro-7-hydroxy-1′-neopentylspiro[indoline-3,4′-piperidine]-1-yl)phenyl)-3-(2,4-difluorophenyl)urea]",1.1 µM,9.6 nM
"CC(C)(C)CN1CCC2(CC1)CN(c1ccccc1NC(=O)Nc1ccc(C(C)(C)C)cc1)c1c(O)ccc(Cl)c12 [Example 55, 1-(4-tert-Butylphenyl)-3-(2-(4-chloro-7-hydroxy-1′-neopentylspiro[indoline-3,4′-piperidine]-1-yl)phenyl)urea]",1 µM,9.7 nM
"Cc1ccc(NC(=O)Nc2ccccc2N2CC3(CCN(CC(C)(C)C)CC3)c3c(Cl)ccc(O)c32)cc1F [Example 56, 1-(2-(4-Chloro-7-hydroxy-1′-neopentylspiro[indoline-3,4′-piperidine]-1-yl)phenyl)-3-(3-fluoro-4-methylphenyl)urea]",0.5 µM,6.4 nM

# From patent US9428504B2, “7-hydroxy-spiropipiperidine indolinyl antagonists of P2Y1 receptor” (BRISTOL-MYERS SQUIBB COMPANY, priority 2012, dated 2016)
